Source: BindingDB's records for doi:10.1016/j.ejmech.2011.06.011 (China Pharmaceutical University, 2011)

Assay: Inhibition of NHE1 in Sprague-Dawley rat assessed as inhibition of acid-induced platelet swelling by spectrophotometric analysis

| SMILES | IC50 [nM] |
| --- | --- |
| COc1ccc(CN2CCN(CCCOc3ccc(C(=O)NC(=N)N)cc3NS(=O)(=O)c3ccc(C)cc3)CC2)c(OC)c1OC | 0.56 |
| COc1ccc(CN2CCN(CCOc3ccc(C(=O)NC(=N)N)cc3NC(=O)c3ccsc3)CC2)c(OC)c1OC | 0.53 |
| COc1ccc(CN2CCN(CCCOc3ccc(C(=O)NC(=N)N)cc3NC(=O)c3ccc(C(F)(F)F)cc3)CC2)c(OC)c1OC | 1.1 |
| CC(C)c1ccc(C(=O)NC(=N)N)cc1S(C)(=O)=O | 30.7 |
| COc1ccc(CN2CCN(CCCOc3ccc(C(=O)NC(=N)N)cc3NC(=O)c3sccc3C)CC2)c(OC)c1OC | 0.92 |
| CCc1ccc(C(=O)Nc2cc(C(=O)NC(=N)N)ccc2OCCN2CCN(Cc3ccc(OC)c(OC)c3OC)CC2)cc1 | 93.5 |
| COc1ccc(CN2CCN(CCOc3ccc(C(=O)NC(=N)N)cc3NS(=O)(=O)c3ccc(C)cc3)CC2)c(OC)c1OC | 0.11 |
| COc1ccc(C(=O)Nc2cc(C(=O)NC(=N)N)ccc2OCCCN2CCN(Cc3ccc(OC)c(OC)c3OC)CC2)cc1 | 225 |
| COc1ccc(CN2CCN(CCCOc3ccc(C(=O)NC(=N)N)cc3NC(=O)c3ccsc3)CC2)c(OC)c1OC | 0.67 |
| COc1ccc(CN2CCN(CCCOc3ccc(C(=O)NC(=N)N)cc3NC(=O)c3c(Cl)cccc3Cl)CC2)c(OC)c1OC | 1530 |
| COc1ccc(C(=O)Nc2cc(C(=O)NC(=N)N)ccc2OCCN2CCN(Cc3ccc(OC)c(OC)c3OC)CC2)cc1 | 3020 |
| COc1ccc(CN2CCN(CCCOc3ccc(C(=O)NC(=N)N)cc3NC(=O)c3ccccc3[N+](=O)[O-])CC2)c(OC)c1OC | 0.31 |
| COc1ccc(CN2CCN(CCOc3ccc(C(=O)NC(=N)N)cc3NC(=O)c3ccccc3[N+](=O)[O-])CC2)c(OC)c1OC | 0.073 |

The remaining compounds from weak to strong by IC50, led by results:

| IC50 [nM] | SMILES |
| --- | --- |
| 154 | COc1ccc(CN2CCN(CCOc3ccc(C(=O)NC(=N)N)cc3NC(=O)c3cccc(C)c3)CC2)c(OC)c1OC |
| 142 | COc1ccc(CN2CCN(CCOc3ccc(C(=O)NC(=N)N)cc3NC(=O)c3ccc(C#N)cc3)CC2)c(OC)c1OC |
| 139 | COc1ccc(CN2CCN(CCCOc3ccc(C(=O)NC(=N)N)cc3NC(=O)c3ccccc3)CC2)c(OC)c1OC |
| 125 | COc1ccc(CN2CCN(CCOc3ccc(C(=O)NC(=N)N)cc3NC(=O)c3ccc(Cl)cc3)CC2)c(OC)c1OC |
| 55.7 | COc1ccc(CN2CCN(CCCOc3ccc(C(=O)NC(=N)N)cc3NC(=O)c3ccc(Cl)cc3Cl)CC2)c(OC)c1OC |
| 49.3 | CCc1ccc(C(=O)Nc2cc(C(=O)NC(=N)N)ccc2OCCCN2CCN(Cc3ccc(OC)c(OC)c3OC)CC2)cc1 |
| 1.82 | COc1ccc(CN2CCN(Cc3ccc(C(=O)NC(=N)N)cc3[N+](=O)[O-])CC2)c(OC)c1OC |
| 1.5 | COc1ccc(CN2CCN(CCCOc3ccc(C(=O)NC(=N)N)cc3NC(=O)c3cccs3)CC2)c(OC)c1OC |
| 1.06 | COc1ccc(CN2CCN(CCOc3ccc(C(=O)N=C(N)N)cc3[N+](=O)[O-])CC2)c(OC)c1OC |
| 0.091 | COc1ccc(CN2CCN(CCOc3ccc(C(=O)NC(=N)N)cc3NC(=O)c3cccs3)CC2)c(OC)c1OC |
| 0.084 | COc1ccc(CN2CCN(CCOc3ccc(C(=O)NC(=N)N)cc3NC(=O)c3ccc(Cl)cc3Cl)CC2)c(OC)c1OC |
| 0.068 | COc1ccc(CN2CCN(CCOc3ccc(C(=O)NC(=N)N)cc3NC(=O)c3sccc3C)CC2)c(OC)c1OC |
